Series [1] in a line: Sumatriptan membrane assay (dodecane membrane between donor and acceptor cell). The format is in vitro ADME. The conditions noted are these: pH 9.0 to 10.0. From the text:
Topics Med. Chem., 1:277-351 (2001). This assay uses a lipid-coated membrane to predict lipid mucosal membrane penetration. The membrane apparatus consists of a dodecane membrane sandwiched between a donor and acceptor cell. The lipid-coated membrane is less porous then the mucous membrane of the oral cavity. Thus, the enhancement seen in the membrane assay is very likely to be magnified in vivo. […] The final pH values of these solutions were adjusted using freshly prepared 0.01 M sodium bicarbonate/sodium carbonate buffer. Permeation was measured by determining the concentration of sumatriptan in the acceptor cell, and is expressed as Pe (effective permeability in centimeters per second).

A short description of series [2]: Dissociation constant (pKa) and extent of ionization. The format is physicochemical. From the text: Conversion of the ionized form to the un-ionized form for the 5-HT agonist is related to pH according to the formula: pH=pKa+Log10 (un-ionized concentration/ionized concentration). When the pH is the same as the pKa, equimolar concentrations of the un-ionized form and ionized form exist. […] As noted above, the un-ionized form is lipophilic and, therefore, more capable of passing through mucous membranes such as the oral mucosa than the ionized form, which is lipophobic in nature. Accordingly, increasing the pH of the saliva favors conversion of the ionized form into the un-ionized form for basic compounds such as the 5-HT agonists described herein, and the final pH can be determined by making use of the above formula. […] The final pH values of these solutions were adjusted using freshly prepared 0.01 M sodium bicarbonate/sodium carbonate buffer. Permeation was measured by determining the concentration of sumatriptan in the acceptor cell, and is expressed as Pe (effective permeability in centimeters per second).

Each structure is given as a SMILES string.

Turning to `CNS(=O)(=O)Cc1ccc2[nH]cc(CCN(C)C)c2c1` [sumatriptan], the “change of effective permeability with pH” value in series [1] is given as “increased with pH”. The un-ionized fraction in series [2] (at pH 10.5) is 90%; in series [2] (at pH 11.5) it was 100%.

For the origin of these results see US20070059254A1, “Compositions for delivering 5-ht agonists across the oral mucosa and methods of use thereof” (TRANSORAL PHARMACEUTICALS, INC., priority 2003, published 2007).
